Experimental findings from ChEMBL document CHEMBL1129240, “Synthesis of acyclo-C-nucleosides in the imidazo[1,2-a]pyridine and pyrimidine series as antiviral agents” (J Med Chem, 1996) are described below.

The test system of data set [1] is Cytomegalovirus. The data set is described as follows: Minimum Inhibitory Concentration (MIC) tested for activity against Cytomegalovirus (CMV) using Davis strain. It is filed as functional. Particulars: Human betaherpesvirus 5.
Data set [2] in a line: Cytotoxic concentration required to cause microscopically detectable alteration of normal cell morphology of E6SM cells. It is filed as cell-based. The note with it: human, read-out: CC50.
Data set [3] relates to Human alphaherpesvirus 3. The data set is described as follows: Minimum Inhibitory Concentration (MIC) tested for activity against Varicella-Zoster Virus(VZV) using YS/R (TK-) strain. The format is functional.
Data set [4] has as its system Human alphaherpesvirus 3. Kind of data set: Minimum Inhibition Concentration (MIC) for activity against Varicella-Zoster Virus(VZV) using YS(TK+) strain. It is filed as functional.
Data set [5] relates to Cytomegalovirus. The data set is described as follows: Minimum Inhibitory Concentration (MIC) tested for activity against Cytomegalovirus (CMV) using AD169 strain. The format is functional. Particulars: Human betaherpesvirus 5.
The subject of data set [6] is Human alphaherpesvirus 3. Kind of data set: Minimum Inhibition Concentration (MIC) for activity against Varicella-Zoster Virus(VZV) using OKA (TK+) strain. The format is functional.
The nature of data set [7]: Cytotoxic concentration required to reduce CEM cell viability by 50%. The format is cell-based. Particulars: human, CCRF-CEM (CEM) cells.
Data set [8] is described as follows: Cytotoxic concentration required to cause microscopically detectable alteration of normal cell morphology of HeLa cells. It is filed as cell-based. Particulars: human, read-out: CC50.
Data set [9] in a line: Minimum cytotoxic concentration to reduce the HEL cell proliferation by 50%. Particulars: human, HEL cells; read-out: MCC. The format is cell-based.
Data set [10] relates to Human alphaherpesvirus 3. The data set is described as follows: Minimum Inhibition Concentration (MIC) for activity against Varicella-Zoster Virus(VZV) using 07/1 (TK-) strain. It is filed as functional.
A short description of data set [11]: Cytotoxic concentration required to cause microscopically detectable alteration of normal cell morphology of Vero cells. It is filed as cell-based. The note with it: chlorocebus sabaeus, read-out: CC50.
Data set [12] has as its system Human alphaherpesvirus 3. Kind of data set: Minimum Inhibitory Concentration (MIC) tested for activity against Varicella-Zoster Virus(VZV) using YS(TK+) strain. The format is functional.
Data set [13] relates to Human alphaherpesvirus 3. The data set is described as follows: Minimum Inhibitory Concentration (MIC) for activity against Varicella-Zoster Virus(VZV) using OKA (TK+) strain. The format is functional.
Data set [14] has as its system Human alphaherpesvirus 3. Kind of data set: Minimum Inhibitory Concentration (MIC) tested for activity against Varicella-Zoster Virus(VZV) using 07/1 (TK-) strain. The format is functional.
Data set [15] has as its system Human alphaherpesvirus 3. The data set is described as follows: Minimum Inhibition Concentration (MIC) for activity against Varicella-Zoster Virus(VZV) using YS/R (TK-) strain. The format is functional.

Converted amounts (≈) assume the structure as drawn. Some results are limits rather than exact numbers.

Turning to `Cc1ccn2c(CSCCCO)cnc2c1`, the MIC was 30 µg/mL (≈ 127 µM) in data set [1]; greater than 40 µg/mL in data set [3]; greater than 40 µg/mL in [4]; 30 µg/mL (≈ 127 µM) in data set [5]; greater than 40 µg/mL in data set [6]; greater than 40 µg/mL in [10]. Further, the MCC in data set [2] is greater than 100 µg/mL; in [8], 40 µg/mL; in data set [11], greater than 40 µg/mL. The CC50 is 17 µg/mL (≈ 71.9 µM) in data set [7] and greater than 100 µg/mL in data set [9].

On to `Cc1cccc2ncc(CSCc3ccccc3)n12`, for which the MCC in [2] came out at 10 µg/mL; in data set [8], 40 µg/mL; in [11], 40 µg/mL. The molecule further registered a CC50 in data set [7] of 9.9 µg/mL (≈ 36.9 µM).

With `Cc1c(Br)cn2c(CSCCO)cnc2c1Br`, the MIC in [1] was 30 µg/mL (≈ 78.9 µM); in data set [12] it was greater than 40 µg/mL; in data set [3], 20 µg/mL (≈ 52.6 µM); in [13], 35 µg/mL (≈ 92.1 µM); in data set [5] it was 20 µg/mL (≈ 52.6 µM); in [10], 22 µg/mL (≈ 57.9 µM). Besides, the results for the MCC in data set [2], in [8] and in data set [11] were greater than 200 µg/mL, greater than 100 µg/mL and greater than 40 µg/mL, respectively. For the same molecule, the results for the CC50 in [7] and in data set [9] were 37 µg/mL (≈ 97.3 µM) and 50 µg/mL (≈ 132 µM), respectively.

For `c1ccc(CSCc2cnc3ncccn23)cc1`, the MIC in data set [1] is 2 µg/mL (≈ 7.83 µM); in data set [12], 2.4 µg/mL (≈ 9.4 µM); in data set [13], 8.8 µg/mL (≈ 34.5 µM); in data set [5], 2 µg/mL (≈ 7.83 µM); in data set [14], 5 µg/mL (≈ 19.6 µM); in data set [15], greater than 10 µg/mL. Also, the MCC in data set [2] amounted to 100 µg/mL; in data set [8], 40 µg/mL; in [11], 200 µg/mL. Besides, the CC50 in data set [7] was found to be 4.2 µg/mL (≈ 16.4 µM); in data set [9], 40 µg/mL (≈ 157 µM).

Regarding `Cc1ccn2c(CSCC(O)CO)cnc2c1` (configuration not stated), the MIC was greater than 50 µg/mL in [1]; greater than 100 µg/mL in data set [12]; 50 µg/mL (≈ 198 µM) in data set [3]; 100 µg/mL (≈ 396 µM) in data set [13]; greater than 50 µg/mL in [5]. For the same molecule, the MCC in [2] is greater than 400 µg/mL; in [8] it was 400 µg/mL; in data set [11] it was greater than 400 µg/mL. The CC50 in [7] and in [9] was greater than 100 µg/mL throughout.

On to `Cc1cccn2c(CSCCO)cnc12`, for which the MIC is 6 µg/mL (≈ 27 µM) in data set [1]; 10 µg/mL (≈ 45 µM) in data set [12]; 25 µg/mL (≈ 112 µM) in [13]; 7 µg/mL (≈ 31.5 µM) in data set [5]; 15 µg/mL (≈ 67.5 µM) in data set [14]; greater than 10 µg/mL in [15]. The MCC worked out at 400 µg/mL in data set [2], 40 µg/mL in [8] and 400 µg/mL in data set [11]. Moreover, the CC50 came out at 9.5 µg/mL (≈ 42.7 µM) in data set [7] and 85 µg/mL (≈ 382 µM) in data set [9].

As for `CCOC(=O)CSCc1cnc2cc(C)ccn12`, the MIC was 23 µg/mL (≈ 87 µM) in data set [1]; greater than 40 µg/mL in data set [12]; greater than 40 µg/mL in data set [3]; greater than 40 µg/mL in data set [13]; 25 µg/mL (≈ 94.6 µM) in data set [5]; greater than 40 µg/mL in data set [14]. Further, the MCC was 200 µg/mL in [2], greater than 100 µg/mL in [8] and greater than 200 µg/mL in data set [11]. The values for the CC50 in data set [7] and in data set [9] were 37 µg/mL (≈ 140 µM) and 80 µg/mL (≈ 303 µM), respectively.

Turning to `Nc1nc2c(ncn2COCCO)c(=O)[nH]1` [ACYCLOVIR], the MCC in data set [2] was greater than 400 µg/mL. Also, the CC50 in data set [9] is greater than 100 µg/mL.

In the case of `Nc1ccn(C[C@@H](CO)OCP(=O)(O)O)c(=O)n1.O.O` [CIDOFOVIR], the MIC amounted to 0.05 µg/mL in data set [1]; 0.033 µg/mL in data set [4]; 0.05 µg/mL in data set [5]; 0.04 µg/mL in [6]; 0.004 µg/mL in data set [15]. For the same molecule, in data set [9], the CC50 is greater than 100 µg/mL.

Turning to `NC(=O)c1ncn([C@@H]2O[C@H](CO)[C@@H](O)[C@H]2O)n1` [RIBAVIRIN], the results for the MCC in data set [2], in data set [8] and in data set [11] were greater than 400 µg/mL, greater than 200 µg/mL and greater than 400 µg/mL, respectively.

Consider `CC(O)CSCc1cnc2ncccn12` (configuration not stated), for which the MIC in data set [1], in data set [12], in [13], in data set [5], in data set [14] and in data set [15] was greater than 40 µg/mL in each case. Moreover, the MCC in data set [2] is greater than 400 µg/mL; in data set [8], 400 µg/mL; in data set [11], greater than 400 µg/mL. Also, the CC50 in [7] and in data set [9] was greater than 100 µg/mL each time.

`CCSCc1cnc2c(C)cccn12`: the MIC in data set [1] was 2 µg/mL (≈ 9.69 µM); in data set [12] it was 5 µg/mL (≈ 24.2 µM); in data set [13], 10 µg/mL (≈ 48.5 µM); in data set [5], 2 µg/mL (≈ 9.69 µM); in [14], 6.8 µg/mL (≈ 33 µM); in data set [15], greater than 10 µg/mL. Moreover, the MCC is 200 µg/mL in data set [2], 10 µg/mL in [8] and 400 µg/mL in data set [11]. Besides, the CC50 in [7] was 4.1 µg/mL (≈ 19.9 µM); in data set [9], 35 µg/mL (≈ 170 µM).

Turning to `OCCCSCc1cnc2c(Cl)cc(C(F)(F)F)cn12`, the MIC in [1], in data set [3], in data set [13], in data set [4], in data set [5] and in data set [14] was greater than 40 µg/mL throughout. For the same molecule, the MCC in [2] is 100 µg/mL; in data set [8], 100 µg/mL; in [11], greater than 100 µg/mL. In addition, the CC50 in data set [7] is 27 µg/mL (≈ 83.1 µM); in data set [9], greater than 100 µg/mL.

Take `Cc1cccc2ncc(CSCC(C)O)n12` (configuration not stated): the MIC was greater than 10 µg/mL in data set [1]; 20 µg/mL (≈ 84.6 µM) in data set [12]; 24 µg/mL (≈ 102 µM) in [3]; greater than 10 µg/mL in data set [5]; 30 µg/mL (≈ 127 µM) in data set [6]; 24 µg/mL (≈ 102 µM) in data set [14]. In addition, the MCC was 400 µg/mL in data set [2], 100 µg/mL in data set [8] and greater than 400 µg/mL in [11]. The CC50 in [7] was 27 µg/mL (≈ 114 µM); in data set [9], 90 µg/mL (≈ 381 µM).

In turn, `Cc1cn([C@H]2C[C@H](N=[N+]=[N-])[C@@H](CO)O2)c(=O)[nH]c1=O` [ZIDOVUDINE] showed a CC50 in data set [7] greater than 125 µg/mL.

Consider `Cc1cccc2ncc(CSCCO)n12`, for which the MIC in data set [1], in data set [12], in data set [13], in [5], in [14] and in data set [15] was greater than 10 µg/mL each time. Besides, the MCC in data set [2] turned out to be 200 µg/mL; in [8] it was 100 µg/mL; in data set [11], 200 µg/mL. The CC50 in [7] worked out at 22 µg/mL (≈ 99 µM); in data set [9], 40 µg/mL (≈ 180 µM).

Regarding `O=c1[nH]cnc2c1ncn2[C@H]1CC[C@@H](CO)O1` [DIDANOSINE], the CC50 in data set [7] was greater than 100 µg/mL.

As for `Cc1c(Br)c(C)n2c(CSCCO)cnc2c1Br`, the MIC is greater than 10 µg/mL in data set [1]; greater than 10 µg/mL in data set [3]; greater than 40 µg/mL in [13]; greater than 40 µg/mL in [4]; greater than 10 µg/mL in data set [5]; greater than 40 µg/mL in [14]. Moreover, the MCC was 100 µg/mL in data set [2], greater than 200 µg/mL in data set [8] and greater than 200 µg/mL in [11]. Besides, the values for the CC50 in data set [7] and in data set [9] were 17 µg/mL (≈ 43.1 µM) and 70 µg/mL (≈ 178 µM), respectively.

With `Cc1cccc2ncc(CSCC(O)CO)n12` (configuration not stated), the MIC in data set [1] was 25 µg/mL (≈ 99.1 µM); in data set [12], greater than 40 µg/mL; in data set [3], greater than 40 µg/mL; in data set [13], greater than 40 µg/mL; in data set [5] it was greater than 10 µg/mL; in data set [14], greater than 40 µg/mL. Moreover, the MCC in data set [2] is 400 µg/mL; in data set [8] it was greater than 100 µg/mL; in data set [11], 400 µg/mL. In addition, the results for the CC50 in [7] and in data set [9] were 45 µg/mL (≈ 178 µM) and 75 µg/mL (≈ 297 µM), respectively.

As to `Nc1nc2c(ncn2COC(CO)CO)c(=O)[nH]1` [GANCICLOVIR], the MIC in data set [1] and in [5] was 0.5 µg/mL (≈ 1.96 µM) in each case. In [2], the MCC is greater than 100 µg/mL.
